Tests used:
Experiment in all cases: relative viability (nuclei count vs DMSO), 5 days (fraction); higher = more cells survive
[1] = compound: C[C@]12O[C@H](C[C@]1(O)CO)n1c3ccccc3c3c4c(c5c6ccccc6n2c5c31)CNC4=O [Lestaurtinib] + C[C@]1(O)C[C@@H](c2nc(-c3ccc4ccc(-c5ccccc5)nc4c3)c3c(N)nccn32)C1 [Linsitinib] (partner 1 µM)
How it was run: (§1)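 A single step with final 0.05% Triton X-100, 1% formaldehyde and 1 ug/ml Hoechst fixed the cells and stained nuclei 5 days after treatment. Lung cancer cell lines in 1536-well plates had been treated by pin tool the day after seeding with one drug alone or a fixed anchor-drug dose plus five library-drug doses (not always all listed) in √10 steps, and nuclei were counted on 4× images. Relative viability is the ratio of nuclei in treated wells to nuclei in vehicle wells, taken as the median of duplicate plates.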

[2] = compound: C1/C(=C\C2=CC=CS2)/C(=O)/C(=C/C3=CC=CS3)/C1 + CC1(C)CCC(c2ccc(Cl)cc2)=C(CN2CCN(c3ccc(C(=O)NS(=O)(=O)c4ccc(N[C@H](CCN5CCOCC5)CSc5ccccc5)c(S(=O)(=O)C(F)(F)F)c4)cc3)CC2)C1 [Navitoclax] (partner 0.5 µM)
How it was run: as §1

TPCA-1 + OSI-027 = compound: C1=CC(=CC=C1C2=CC(=C(S2)NC(=O)N)C(=O)N)F [TPCA-1] + COc1cccc2cc(-c3nc([C@H]4CC[C@H](C(=O)O)CC4)n4ncnc(N)c34)[nH]c12 [OSI-027] (partner 0.5 µM)
How it was run: as §1

[3] = compound: C[C@]12O[C@H](C[C@]1(O)CO)n1c3ccccc3c3c4c(c5c6ccccc6n2c5c31)CNC4=O [Lestaurtinib] + CC(=O)Nc1cccc(-n2c(=O)n(C3CC3)c(=O)c3c(Nc4ccc(I)cc4F)n(C)c(=O)c(C)c32)c1 [Trametinib] (partner 0.02 µM)
How it was run: as §1

| Cell Line | relative viability ([1]; first compound 0.005 µM) | relative viability ([1]; first compound 0.01581 µM) | relative viability ([1]; first compound 0.05 µM) | relative viability ([1]; first compound 0.1581 µM) | relative viability ([1]; first compound 0.5 µM) | relative viability ([2]; first compound 0.2 µM) | relative viability ([2]; first compound 0.6325 µM) | relative viability ([2]; first compound 2 µM) | relative viability ([2]; first compound 6.325 µM) | relative viability ([2]; first compound 20 µM) | relative viability (TPCA-1 + OSI-027; first compound 0.04 µM) | relative viability (TPCA-1 + OSI-027; first compound 0.1265 µM) | relative viability (TPCA-1 + OSI-027; first compound 0.4 µM) | relative viability (TPCA-1 + OSI-027; first compound 1.265 µM) | relative viability (TPCA-1 + OSI-027; first compound 4 µM) | relative viability ([3]; first compound 0.005 µM) | relative viability ([3]; first compound 0.01581 µM) | relative viability ([3]; first compound 0.05 µM) | relative viability ([3]; first compound 0.1581 µM) | relative viability ([3]; first compound 0.5 µM) |
| --- | --- | --- | --- | --- | --- | --- | --- | --- | --- | --- | --- | --- | --- | --- | --- | --- | --- | --- | --- | --- |
| NCI-H1944 | 1.14 | 1.14 | 0.717 | 0.555 | 0.634 | 1.14 | 0.966 | 1.08 | 0.899 | 0.992 | 0.482 | 0.398 | 0.416 | 0.368 | 0.318 | 0.408 | 0.464 | 0.386 | 0.345 | 0.292 |
| NCI-H2023 | 0.653 | 0.709 | 0.547 | 0.369 | 0.208 | 1.08 | 0.991 | 1.03 | 0.971 | 0.94 | 0.552 | 0.335 | 0.364 | 0.32 | 0.187 | 0.557 | 0.712 | 0.599 | 0.354 | 0.132 |
| NCI-H1755 | 1.02 | 1.05 | 0.776 | 0.429 | 0.215 | 1.07 | 1.03 | 0.963 | 0.849 | 0.944 | 0.755 | 0.621 | 0.804 | 0.539 | 0.496 | 0.766 | 0.774 | 0.731 | 0.571 | 0.407 |
| NCI-H23 | 0.509 | 0.604 | 0.387 | 0.463 | 0.233 | 0.902 | 0.804 | 0.944 | 0.602 | 0.729 | 0.599 | 0.574 | 0.514 | 0.429 | 0.149 | 0.377 | 0.455 | 0.35 | 0.408 | 0.225 |
